The Ki is a measure of affinity in units of concentration, obtained from inhibition or displacement.

Consider 39 compounds from patent publication US20110306621A1, “ACYLGUANIDINE DERIVATIVES” (priority 2009, published 2011).

Test [1] has as its system mouse in which hyperactivity was caused by methamphetamine (MAP) or MK-801. Put plainly: Improvement effect on increase in motion induced by methamphetamine or MK-801 in mice. The test is classed as in vivo. The note with it: male ICR mouse; compound oral at a dose of 0.1 mg/kg; MK-801 0.3 mg/kg i.p.; motion for 60 minutes; P<0.05. On the procedure: The improvement effect of compound of formula (I) was evaluated by measuring the quantity of motion by IR irradiation when a compound was administered to a mouse in which hyperactivity was caused by methamphetamine (hereinafter, simply referred to as “MAP”) or MK-801, known as an animal model of schizophrenia.
The animal was taken out of the breeding cage, orally administered with a compound to be tested, and then placed into a cage for breeding. After 30 minutes, the animal was put into a cage for measurement, and motion with the compound to be tested alone was measured. After 30 to 90 minutes, the animal was taken out, and intraperitoneally administered with a drug for increasing the motion (MAP; 1 mg/kg or MK-801; 0.3 mg/kg, dissolved in a physiological saline, respectively). Then, motion for a certain period of time (60 minutes) was measured by using a motion measurement device
(CompACT AMS from Muromachi Kikai Co., Ltd.) by means of an infrared sensor.
For normal mouse (a mouse administered with physiological saline) and mouse administered with a drug for increasing the motion, a Student's T test was performed for evaluation for each interval. For a mouse group administered with the compound to be tested, an assay was performed using a solvent (vehicle) group and a Dunnett's T test. […]

For test [2], the target named is T1, human 5-HT5A receptor (Homo sapiens, UniProt P47898).
T1 construct: expressed in transfected cells; membranes used
Put plainly: Test on a human 5-HT5A receptor binding inhibition ([3H]5-CT). The note with it: membrane from HEK293 cells for forced expression of human 5-HT5A receptor; Ki calculated from IC50 and Kd of [3H]5-CT (4.95 nM). The method in brief:
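Membranes from HEK293 cells stably expressing human 5-HT5A, preincubated with compound 15 min at room temperature, then 2 nM [3H]5-CT added (stock solution), 37 °C for 60 min; filter-bound radioactivity counted. IC50 versus 1 μM 5-CT as full inhibition; Ki via Cheng–Prusoff using Kd 4.95 nM.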

Counter-ions that a name gives are not always drawn.

T1 sequence (P47898 whole entry): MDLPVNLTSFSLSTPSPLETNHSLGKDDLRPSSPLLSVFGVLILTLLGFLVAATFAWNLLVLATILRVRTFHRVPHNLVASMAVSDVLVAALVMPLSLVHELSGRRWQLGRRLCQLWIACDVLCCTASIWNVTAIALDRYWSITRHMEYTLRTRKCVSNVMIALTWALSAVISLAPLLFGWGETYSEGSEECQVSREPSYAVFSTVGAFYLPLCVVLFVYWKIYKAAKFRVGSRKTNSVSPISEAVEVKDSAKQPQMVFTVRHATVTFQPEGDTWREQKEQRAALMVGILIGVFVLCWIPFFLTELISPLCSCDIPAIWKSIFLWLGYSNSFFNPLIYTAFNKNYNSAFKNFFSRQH

Regarding `NC(N)=NC(=O)c1ccc2cccc(-c3c(F)cccc3Cl)c2c1` [Example 1, 8-(2-chloro-6-fluorophenyl)-N-(diaminomethylene)-2-naphthamide hydrochloride], the “inhibition of hyperactivity caused by MK-801” value in test [1] was “significantly inhibited”. In test [2], the Ki was 0.96 nM. Regarding `N#Cc1ccc(-c2c(F)ccc3ccc(C(=O)N=C(N)N)cc23)cc1` [Example 9], the Ki in test [2] is 0.3 to 3 nM. Still for that read-out and setting: next, `NC(N)=NC(=O)c1ccc2cccc(-c3cc(C(F)(F)F)ncn3)c2c1` [Example 183]: 3 to 30 nM; `NC(N)=NC(=O)c1ccc2c(F)ccc(-c3c(F)cccc3F)c2c1` [Example 175]: 0.3 to 3 nM; `N#Cc1cccc(F)c1-c1cccc2ccc(C(=O)N=C(N)N)cc12` [Example 26]: 0.3 to 3 nM.

Take `N#Cc1ccc(F)cc1-c1cccc2ccc(C(=O)N=C(N)N)cc12` [Example 39]: the Ki in test [2] is 30 to 300 nM. As to `NC(N)=NC(=O)c1ccc2cccc(-c3c(F)cc(O)cc3F)c2c1` [Example 142], the inhibitory constant (Ki) in test [2] was 0.3 to 3 nM. For the compound `NC(N)=NC(=O)c1ccc2cccc(-c3ccc(F)cc3Cl)c2c1` [Example 60], the Ki in test [2] was 0.3 to 3 nM. On the same count and under the same terms, next, `N#Cc1ccc(-c2cccc3ccc(C(=O)N=C(N)N)cc23)s1` [Example 50]: 0.3 to 3 nM; `N#Cc1cc(Cl)ccc1-c1cccc2ccc(C(=O)N=C(N)N)cc12` [Example 33]: 3 to 30 nM. Same read-out and setting: the result for `NC(N)=NC(=O)c1ccc2cccc(-c3ccc(C(F)(F)F)cn3)c2c1` [Example 189] reads 3 to 30 nM; that for `NC(N)=NC(=O)c1ccc2cccc(-c3ncccc3Cl)c2c1` [Example 108], 3 to 30 nM; that for `COc1cccc(F)c1-c1cccc2ccc(C(=O)N=C(N)N)cc12` [Example 18], 0.3 to 3 nM.

Consider `COc1cc(C#N)ccc1-c1ccc(F)c2ccc(C(=O)N=C(N)N)cc12` [Example 188], for which the Ki in test [2] is 0.3 to 3 nM. Regarding `NC(N)=NC(=O)c1ccc2cccc(-c3ccc(F)cn3)c2c1` [Example 134], in test [2], the Ki is 3 to 30 nM. Still for that read-out and setting: next, `NC(N)=NC(=O)c1ccc2cccc(-c3cccc4cnccc34)c2c1` [Example 128]: 0.3 to 3 nM; `NC(N)=NC(=O)c1ccc2cccc(-c3ccccn3)c2c1` [Example 201]: 3 to 30 nM; `COc1ncccc1-c1cccc2ccc(C(=O)N=C(N)N)cc12` [Example 8]: 3 to 30 nM. Same read-out and setting: the result for `N#Cc1sccc1-c1cccc2ccc(C(=O)N=C(N)N)cc12` [Example 51] reads 3 to 30 nM; that for `NC(N)=NC(=O)c1ccc2cccc(-c3ccc(F)c4c3C(=O)CC4)c2c1` [Example 126], 30 to 300 nM; that for `NC(N)=NC(=O)c1ccc2cccc(-c3cccc4cccnc34)c2c1` [Example 123], 3 to 30 nM.

Turning to `NC(N)=NC(=O)c1ccc2cccc(-c3cccc4ccncc34)c2c1` [Example 167], the Ki in test [2] was 0.3 to 3 nM.

As to `NC(N)=NC(=O)c1ccc2cccc(-c3cccc4ncccc34)c2c1` [Example 109], in test [2], the Ki was 0.3 to 3 nM. Consider `NC(N)=NC(=O)c1ccc2cccc(-c3cc(C4CC4)ncc3F)c2c1` [Example 199], for which the Ki in test [2] is 3 to 30 nM. On the same count and under the same terms, the result for `NC(N)=NC(=O)c1ccc2cccc(-c3c[nH]c4ccccc34)c2c1` [Example 173] reads 3 to 30 nM; that for `NC(N)=NC(=O)c1ccc2ccc(Cl)c(-c3ccncc3F)c2c1` [Example 156], 0.3 to 3 nM; that for `Cn1ncc(Cl)c1-c1cccc2ccc(C(=O)N=C(N)N)cc12` [Example 91], 3 to 30 nM.

`COc1cccc(-c2cccc3ccc(C(=O)N=C(N)N)cc23)c1F` [Example 40]: in test [2], the Ki was 3 to 30 nM. As for `NC(N)=NC(=O)c1ccc2cccc(-c3sccc3Cl)c2c1` [Example 49], the Ki in test [2] is 0.3 to 3 nM.

Take `N#Cc1cc(-c2cccc3ccc(C(=O)N=C(N)N)cc23)ccn1` [Example 170]: the Ki in test [2] was 3 to 30 nM.

Regarding `Cc1ccc2ccc(C(=O)N=C(N)N)cc2c1-c1ccc(C#N)cc1` [Example 10], the Ki in test [2] is 0.3 to 3 nM.

As for `Cc1cc(Cl)cnc1-c1cccc2ccc(C(=O)N=C(N)N)cc12` [Example 152], the Ki in test [2] is 3 to 30 nM. The same measure, in the same setting: the result for `NC(N)=NC(=O)c1ccc2cccc(-c3c(F)cc(CO)cc3F)c2c1` [Example 121] reads 0.3 to 3 nM; that for `NC(N)=NC(=O)c1ccc2cccc(-c3ccc(Cl)cc3F)c2c1` [Example 59], 0.3 to 3 nM. With `COc1cc(Cl)ccc1-c1cccc2ccc(C(=O)N=C(N)N)cc12` [Example 57], the Ki in test [2] was 0.3 to 3 nM. In the case of `NC(N)=NC(=O)c1ccc2cccc(-c3ccc(F)cc3OC(F)F)c2c1` [Example 94], in test [2], the Ki was 3 to 30 nM.

As for `COc1ccc(F)cc1-c1cccc2ccc(C(=O)N=C(N)N)cc12` [Example 34], in test [2], the Ki was 3 to 30 nM. Same read-out and setting: next, `CCOc1ncc(Cl)c(-c2cccc3ccc(C(=O)N=C(N)N)cc23)c1F` [Example 66]: 0.3 to 3 nM. In the case of `COc1cc(C#N)ccc1-c1c(Cl)ccc2ccc(C(=O)N=C(N)N)cc12` [Example 145], the Ki in test [2] was 0.3 to 3 nM.
